Laboratory results published in PubChem BioAssay AID1353 (Sanford-Burnham Center for Chemical Genomics, 2008).
Calls of active or inactive are those of the source.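 The calls were made as follows: active = ATP loss reduced by over 30% versus thapsigargin-only wells, at any thapsigargin dose tested; inactive = the rest.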

Tested on: C17.2 differentiated neurons, thapsigargin death, ATPlite, 24 h
Test: rescue of C17.2 neurons from thapsigargin, SAR follow-up, cell-based, differentiated mouse neural stem C17.2, ATP luminescence (AID 1353)
Settings: at 25 µM, stronger effect = higher value
[1] = measured here: survival at thapsigargin 5 uM
[2] = measured here: survival at thapsigargin 15 uM

Compound: COc1ccc(C2CC(=O)C3=C(C2)Nc2ccccc2NC3c2cc(C)ccc2C)cc1 (stereo not drawn)
- survival: 2% (inactive)
- survival [1]: 69%
- survival [2]: 0%

Compound: CCOc1cccc(C2Nc3ccccc3NC3=C2C(=O)CC(c2ccc(OC)cc2)C3)c1 (stereo not drawn)
- survival: 1% (inactive)
- survival [1]: 83%
- survival [2]: 0%

Compound: COc1ccc(C2CC(=O)C3=C(C2)Nc2ccccc2NC3c2cccc(C(F)(F)F)c2)cc1OC (stereo not drawn)
- survival: 5% (inactive)
- survival [1]: 59%
- survival [2]: 0%

Compound: COc1ccc(C2CC(=O)C3=C(C2)Nc2ccccc2NC3c2ccccc2C(F)(F)F)cc1OC (stereo not drawn)
- survival: 12% (inactive)
- survival [1]: 55%
- survival [2]: 1%

Compound: CSc1ccc(C2Nc3ccccc3NC3=C2C(=O)CC(c2ccccc2)C3)cc1 (stereo not drawn)
- survival: 2% (inactive)
- survival [1]: 86%
- survival [2]: 0%

Compound: CC1(C)CC(=O)C2=C(C1)Nc1ccccc1NC2c1ccc(-c2ccccc2)cc1 (stereo not drawn)
- survival: 1% (inactive)
- survival [1]: 45%
- survival [2]: 0%

Compound: COc1ccc(C2CC(=O)C3=C(C2)Nc2ccccc2NC3c2cccc(Oc3ccccc3)c2)cc1OC (stereo not drawn)
- survival: 50%
- survival [1]: 68%
- survival [2]: 1%

Compound: O=C1CC(c2ccccc2)CC2=C1C(c1c(F)cccc1Cl)Nc1ccccc1N2 (stereo not drawn)
- survival: 10% (inactive)
- survival [1]: 87%
- survival [2]: 1%

Compound: COc1ccc(C2CC(=O)C3=C(C2)Nc2ccccc2NC3c2cccc(Br)c2)cc1OC (stereo not drawn)
- survival: 7% (inactive)
- survival [1]: 67%
- survival [2]: 0%

Compound: CCOc1cc(C2Nc3ccccc3NC3=C2C(=O)CC(c2ccc(OC)cc2)C3)cc(Cl)c1O (stereo not drawn)
- survival: 1% (inactive)
- survival [1]: 79%
- survival [2]: 0%

Compound: CCCOc1ccc(C2Nc3ccccc3NC3=C2C(=O)CC(c2ccc(OC)c(OC)c2)C3)cc1 (stereo not drawn)
- survival: 20% (inactive)
- survival [1]: 62%
- survival [2]: 1%
